Assays:
Sprague-Dawley rats = settings: rat, in vivo, iv, 90 ug/kg
[1] = Quantum yield measurement
Procedure: Fluorescence traces were recorded on a PTI QuantaMaster steady-state spectrofluorimeter operated by FelixGX 4.2.2 software, with 5 nm excitation and emission slit widths, 0.1 s integration rate, and enabled emission correction.

| excretion into bile / biliary clearance (in words) (Sprague-Dawley rats) | quantum yield [1] | SMILES |
| --- | --- | --- |
| excellent biliary clearance | – | CN(CCOC1=C(/C=C/C2=[N+](CCCCS(=O)(=O)[O-])c3ccccc3C2(C)C)CCC/C1=C\C=C1\N(CCCCS(=O)(=O)O)c2ccccc2C1(C)C)C(=O)CCCC(=O)O [FNIR-Ar-H_N-BS] |
| – | 9% | CC1(C)C(/C=C/C=C/C=C/C=C2\N(CCCCS(=O)(=O)O)c3ccc4ccccc4c3C2(C)C)=[N+](CCCCS(=O)(=O)[O-])c2ccc3ccccc3c21 [ICG, indocyanine green] |
| excretes rapidly into bile | – | CC1(C)C(=CC=C2CCCC(C=CC3=[N+](CCCCCC(=O)[O-])c4ccc(S(=O)(=O)[O-])cc4C3(C)C)=C2Oc2ccc(S(=O)(=O)[O-])cc2)N(CCCCS(=O)(=O)[O-])c2ccc(S(=O)(=O)[O-])cc21.[Na+].[Na+].[Na+].[Na+] [IRDye® 800CW] |

— US11787764B2, “Heptamethine cyanines for use as fluorescent markers of the biliary and renal systems” (CHILDREN'S NATIONAL MEDICAL CENTER, priority 2018, dated 2023)
